Data: patent US20230048338A1, “NOVEL CELLULAR DELIVERY METHODS” (PYC Therapeutics Limited, priority 2019, published 2023)

Key:
GFAP = GFAP in vivo toxicity assay (ddPCR of Gfap mRNA after intravitreal injection); conditions: 5 days, mouse; for GFAP score (± SD): intravitreal 1.6 ug per eye, Gfap mRNA normalised to housekeeping genes
Description: Glial fibrillary acidic protein (GFAP) is an intermediate-filament cytoskeletal protein. Levels of GFAP are strongly influenced by injury or stress in some cell types and GFAP expression has become an important marker of injury in the central nervous system. In the eye, Muller glia cells normally express low levels of GFAP which increases considerably following retinal injury.
Expression of GFAP mRNA was quantified via amplification of cDNA obtained as part of the in vivo Smn efficacy assay described above. ddPCR was performed using BioRad droplet generator and reader (QX200 DG8) and thermocyclers (T100), specific probes for murine Gfap (dMmuCPE5116126) and housekeeping genes Gapdh, Eef1a1 and Rp127 (dMmuCPE5195283, dMmuCPE5101732 and dMmuCPE5197083) as well as ddPCR Master mix for Probes (#1863024) and other ddPCR specific consumables from BioRad (#1863005, 12001925, 1863004, 1864007).
Assay results were obtained by BioRad ddPCR software in copies/uL. This was then normalised to housekeeping genes for comparison across experiments.

exon 7 of the SMN1 gene = experiment: In vitro SMN1 efficacy assay (exon-7 skipping, ARPE-19 cells); format: cell-based, human; conditions: for Percent exon7-skipped SMN1 transcript (± SD): 48 h post treatment
Description: Potential CPP peptides were linked to a […] that targets exon 7 of the SMN1 gene (Flynn et al 2018), using strain-promoted (SPAAC) click chemistry (Agard et al 2004, Dommerholt et al. 2016). Peptide-PMO conjugates were incubated on ARPE-19 cells for 2 days in full media. Efficacy of internalization was measured by the degree of exon7 skipping in the SMN1 gene RNA transcript through RNA extraction. Peptide-PMOs with % d7 transcript higher than the PMO treatment alone were considered CPPs.
Using the SMN1 gene, we built an exon-skipping assay targeting the SMN1 gene (Flynn et al 2018) at exon-7 using a phosphorodiamidate morpholino oligonucleotide (PMO) conjugated to different CPPs. This assay was used to identify CPPs that could efficiently deliver PMO cargo to the nucleus and effect exon-skipping of SMN1. Efficiency of delivery and function was determined by measuring the change in D7-SMN1 RNA transcript, using RNA extraction, cDNA generation and PCR using SMN1-specific primers. Efficiency was interpreted by the higher the percentage D7-SMN1 transcript, the better the delivery to the nucleus by the CPP.
Exon skipping assays and PCR detection were performed according to published protocols (Mann et al 2002, Gene Med, 4, 644-654).
Retinal pigment epithelial cells (ARPE-19) immortalized cells were treated with various concentrations (4 uM, 2 uM, 1 uM, in duplicate) of CPP-PMO conjugate and SMN1 transcript levels assessed 48 h post treatment by RNA extraction and purification, followed by cDNA generation and PCR.
(§1) Cells were seeded in 24-well plates (ARPE-19, 2.5×10^4 cells/well) in complete medium (DMEM/F12 1:1, 10% FCS; 10 mM HEPES, 1× GlutaMAX™, Pen/Strep 100 u/ml; Gibco, Thermo Fisher Scientific, Waltham, Mass., USA). Cells were incubated overnight (37° C., 5% CO2) to allow for cell adherence. On the day of the assay, media was aspirated and replaced with CPP-PMO or PMO only diluted in treatment media (DMEM/F12 1:1, 10% FCS; 10 mM HEPES, 1× GlutaMAX™, Pen/Strep 100 u/ml; Gibco, Thermo Fisher Scientific, Waltham, Mass., USA), followed by incubation (37° C., 5% CO2) for 24 h. Fresh media 1:1 was added the following day and cells returned to the incubator for a further 24 h.
48 h post-treatment, the cell media was carefully aspirated, and cells rinsed with PBS. RNA from the treated cells was obtained using commercial RNA extraction kits according to manufacturer's protocol (Bio-Rad Aurum total RNA 96 kit; Quantify RNA yield; Quant-iT RNA BR kit).
Extracted RNA was purified, quantified and then diluted to 10 ng/ul. cDNA was produced using a commercial reverse transcription kit according to the manufacturers protocol (BioRad iScript). The produced cDNA was used as a template with primers designed to amplify region of interest, to amplify the DNA. The efficacy of exon skipping was determined by quantifying full length (FL SMN1) and exon-7 skipped fragment (D7-SMN1) of the SMN1 gene (LC-GX Nucleic Acid Analyzer) and calculating a percentage. The higher the percentage of D7-SMN1 DNA, the greater the CPP delivery efficiency

ARPE-19 cells = experiment: In vitro SMN1 viability assay (CellTiter-Glo); format: cell-based; conditions: for Percent Mean Viability (± SD): 48 h
Description: as §1, with “96-well” for “24-well”, “4×10^3” for “2.5×10^4”, “USA) at various concentrations (32, 16, 8, 4, 2, and 1 uM),” for “USA),”
48 h post-treatment, viability of the cells was measured using the commercial CellTiter-Glo® Luminescent Cell Viability Assay (Promega, Australia). In brief the CellTiter-Glo reagent lyses the cells and generates a luminescent signal that is proportional to the amount of ATP present, which in turn is directly proportional to the number of live cells present in culture. All assays were conducted with a known cytotoxic agent, melittin (Renata et al. 2007), and cell only control. Cell viability was used to determine the level of toxicity caused by the CPP-PMO conjugates, where high viability equates to low toxicity, and low viability with high toxicity, respectively.

Smn gene exon 7 = experiment: In vivo Smn efficacy assay (IVT administration), exon-7 skipping in ocular tissues; conditions: mouse; for Percent exon7-skipped SMN1 transcript (± SD): intravitreal 1.6 ug per eye
Description: The in vitro SMN1 efficacy assay described in Example 1 is equally applicable to the in vivo setting, given the ubiquitous distribution of the Smn gene in the mouse body, Smn being the mouse orthologue of the human SMN1. The use of natural L-peptides is undesirable in the in vivo setting, due to presence of a vast array of proteases in the body. To adequately assess the peptide's cell-penetrating capacity, peptides were synthesized as either mixed-L/D amino acid containing peptides, where all basic residues were D-amino acids, or as full-D amino acid containing peptides. Both approaches have been established to protect peptides from proteolytic degradation during systemic administration into animals.
The ability of CPP-PMOs to deliver the Smn cargo in vivo to the RPE cell later in the eye was assessed by administration into the vitreous humor of mice and measuring the change in Smn transcript levels in the retina, RPE and choroid cell layers after 5, 7, 21 and 28 days. The CPP of the present invention (SEQ ID NO: 1) and control CPP Pip6a (SEQ ID NO: 3), conjugated to an Smn PMO (SEQ ID NO: 2), were administered by intravitreal injection at 1.6 ug (0.5 ul volume) per eye. At the desired time point post treatment, the animals were culled and eyes were dissected, tissue layers homogenised and RNA extracted using the same protocol as per Example 1.
The efficiency of delivery and function to the various organs was determined by measuring the change in Smn RNA transcript from full-length to an exon-7 skipped fragment (D7-Smn) RNA transcript, using RNA extraction, cDNA generation and PCR using Smn-specific primers. Efficiency was interpreted by the higher the percentage D7-Smn transcript, the better the delivery to the tissue by the CPP.
Exon skipping assays and RT-PCR detection were performed according to published protocols (Mann et al 2002, Gene Med, 4, 644-654).
Mice (C576/6; age 7 weeks) were sourced from Australian BioResources (ABR). Selected CPP-PMOs were injected into the vitreous at 1.6 ug (0.5 ul) per eye, with one to three mice per treatment group.
48 h post-treatment, mice were culled, and the following ocular tissues harvested; retina, RPE layer or RPE/choroid combined. The tissues were homogenised, and RNA was obtained using commercial RNA extraction kits according to manufacturer's protocol (Bio-Rad Aurum total RNA 96 kit; Quantify RNA yield; Quant-iT RNA BR kit).
Extracted RNA was purified, quantified and then diluted to 10 ng/ul. cDNA was produced using a commercial reverse transcription kit according to the manufacturers protocol (BioRad iScript). The produced cDNA was used as a template with primers designed to amplify region of interest, to amplify the DNA. The efficacy of exon skipping was determined by quantifying full length (FL Smn) and exon-7 skipped fragment (D7-Smn) of the Smn gene (LC-GX Nucleic Acid Analyzer) and calculating a percentage. The higher the percentage of D7-Smn DNA, the greater the CPP delivery efficiency.

## ACTTTCCTTCTTTTTTATTTTGTCT (PMO, 5' cyclooctyne handle, chemistry not fully specified; listed as Homo sapiens) [SEQ ID NO: 2, phosphorodiamidate morpholino oligonucleotide (PMO) targeting exon 7 of SMN1, with 5' cyclooctyne handle; unconjugated cargo control]
GFAP
  GFAP score (± SD): 0.0262
Exon 7 of the SMN1 gene; 1 uM
  Percent exon7-skipped SMN1 transcript (± SD): 16.59 (± 4.07) Percent
Exon 7 of the SMN1 gene; 2 uM
  Percent exon7-skipped SMN1 transcript (± SD): 17.35 (± 4.97) Percent
Exon 7 of the SMN1 gene; 4 uM
  Percent exon7-skipped SMN1 transcript (± SD): 18.34 (± 5.99) Percent
ARPE-19 cells; 2 uM
  Percent Mean Viability (± SD): 99.41%
ARPE-19 cells; 4 uM
  Percent Mean Viability (± SD): 100.01%
ARPE-19 cells; 8 uM
  Percent Mean Viability (± SD): 99.11%
ARPE-19 cells; 16 uM
  Percent Mean Viability (± SD): 97.42%
ARPE-19 cells; 32 uM
  Percent Mean Viability (± SD): 93.61%
Smn gene exon 7; RPE/choroid, 5 days
  Percent exon7-skipped SMN1 transcript (± SD): 0.00%
Smn gene exon 7; RPE/choroid, 7 days
  Percent exon7-skipped SMN1 transcript (± SD): 0.00%
Smn gene exon 7; retina, 5 days
  Percent exon7-skipped SMN1 transcript (± SD): 0.00%
Smn gene exon 7; retina, 28 days
  Percent exon7-skipped SMN1 transcript (± SD): 0.77%

## RXRRBRRXRYQFLIRXRBRXRB[azk]ACTTTCCTTCTTTTTTATTTTGTCT [SEQ ID NO: 3[azk]2]
GFAP
  GFAP score (± SD): 0.1637
Smn gene exon 7; RPE/choroid, 5 days
  Percent exon7-skipped SMN1 transcript (± SD): 9.94%
Smn gene exon 7; RPE/choroid, 7 days
  Percent exon7-skipped SMN1 transcript (± SD): 6.70%
Smn gene exon 7; retina, 5 days
  Percent exon7-skipped SMN1 transcript (± SD): 21.66%
Smn gene exon 7; retina, 28 days
  Percent exon7-skipped SMN1 transcript (± SD): 3.39%

## rrsrtaraGrpGrnssrpsapr[azk]ACTTTCCTTCTTTTTTATTTTGTCT (chain 1 RRSRTARAGRPGRNSSRPSAPR; chain 2 actttccttcttttttattttgtct; azidolysine SPAAC click linkage; listed as Homo sapiens) [SEQ ID NO: 1[azk]2]
GFAP; intravitreal
  GFAP expression in vivo (in words): very little GFAP expression
GFAP
  GFAP score (± SD): 0.0324
Exon 7 of the SMN1 gene; 1 uM
  Percent exon7-skipped SMN1 transcript (± SD): 19.44 (± 3.82) Percent
Exon 7 of the SMN1 gene; 2 uM
  Efficiency in inducing SMN1 exon-skipping relative to SMN1 PMO only treatment: 1.2 fold
  Percent exon7-skipped SMN1 transcript (± SD): 21.38 (± 2.10) Percent
Exon 7 of the SMN1 gene; 4 uM
  Percent exon7-skipped SMN1 transcript (± SD): 29.99 (± 3.96) Percent
ARPE-19 cells; 2 uM
  Percent Mean Viability (± SD): 102.61%
ARPE-19 cells; 4 uM
  Percent Mean Viability (± SD): 105.23%
ARPE-19 cells; 8 uM
  Percent Mean Viability (± SD): 103.34%
ARPE-19 cells; 16 uM
  Percent Mean Viability (± SD): 102.52%
ARPE-19 cells; 32 uM for 48 hours
  Cell viability relative to PMO alone (less deleterious): 1.05 fold
ARPE-19 cells; 32 uM
  Percent Mean Viability (± SD): 98.20%
Smn gene exon 7; RPE/choroid, 5 days
  Percent exon7-skipped SMN1 transcript (± SD): 13.05%
Smn gene exon 7; RPE/choroid, 7 days
  Percent exon7-skipped SMN1 transcript (± SD): 12.22%
Smn gene exon 7; intravitreal, RPE/choroid and retina
  Truncated D7-Smn transcript in vivo compared with Smn PMO alone (in words): creates more truncated D7-Smn transcript than the Smn PMO alone
Smn gene exon 7; retina, 5 days
  Percent exon7-skipped SMN1 transcript (± SD): 19.61%
Smn gene exon 7; retina, 28 days
  Percent exon7-skipped SMN1 transcript (± SD): 13.71%
